From ChEMBL document CHEMBL1135401, “Pharmacophore mapping of a series of 2,4-diamino-5-deazapteridine inhibitors of Mycobacterium avium complex dihydrofolate reductase” (J Med Chem, 2002)

Target: T1, Dihydrofolate reductase (Mycobacterium avium, UniProt O30463)
T1 sequence (O30463 whole entry): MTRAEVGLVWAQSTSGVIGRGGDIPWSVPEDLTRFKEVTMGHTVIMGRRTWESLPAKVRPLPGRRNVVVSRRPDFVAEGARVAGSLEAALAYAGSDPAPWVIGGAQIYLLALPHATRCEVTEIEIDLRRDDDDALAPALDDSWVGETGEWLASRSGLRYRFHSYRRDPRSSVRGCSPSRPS
Test: Antimycobacterial activity against Mycobacterium avium complex dihydrofolate reductase (MAC DHFR)

SMILES	IC50 [nM]
CCc1c(CNc2cc(C(F)(F)F)ccc2OC)cnc2nc(N)nc(N)c12	0.88
COc1cc(OC)cc(N(C)Cc2cnc3nc(N)nc(N)c3c2C)c1	0.73
Cc1cc(Br)cc(C)c1NCc1cnc2nc(N)nc(N)c2c1C	5.3
COc1cc(Cl)c(C)cc1NCc1cnc2nc(N)nc(N)c2c1C	0.94
Cc1c(CNc2cccc3c2CCCC3)cnc2nc(N)nc(N)c12	0.93
COCc1c(CNc2ccc(OC)c(OC)c2)cnc2nc(N)nc(N)c12	1200
Cc1c(Cl)cccc1NCc1cnc2nc(N)nc(N)c2c1C	0.82
Cc1c(CNC2CCCc3ccccc32)cnc2nc(N)nc(N)c12 (centres undefined)	280
Cc1cccc(SCc2cnc3nc(N)nc(N)c3c2C)c1	16
CCOc1ccc(OCC)c(N(C)Cc2cnc3nc(N)nc(N)c3c2C)c1	1.4
Nc1nc(N)c2cc(CNc3ccc(Cl)cc3)cnc2n1	73
CCc1c(CNc2cc(C)ccc2OC)cnc2nc(N)nc(N)c12	3.1
Cc1c(CNc2c3ccccc3cc3ccccc23)cnc2nc(N)nc(N)c12	620
COc1ccc(OC)c(NCc2cnc3nc(N)nc(N)c3c2C)c1	1.1
CCOc1ccc(NCc2cnc3nc(N)nc(N)c3c2C)cc1OC	1.1
COc1ccc(OC)c(CCc2cnc3nc(N)nc(N)c3c2C)c1	47
Cc1c(CNc2ccc3ncccc3c2)cnc2nc(N)nc(N)c12	0.95
COCc1c(CNc2cc(OC)ccc2OC)cnc2nc(N)nc(N)c12	2400

SMILES	IC50 [nM]
Cc1c(CNc2cc(F)ccc2F)cnc2nc(N)nc(N)c12	0.9
COc1ccc(C)c(NCc2cnc3nc(N)nc(N)c3c2C)c1	0.4
Cc1c(CNc2ccc3ccc4cccc5ccc2c3c45)cnc2nc(N)nc(N)c12	0.88
Cc1cc(NCc2cnc3nc(N)nc(N)c3c2C)c(Cl)cc1F	0.78
Cc1c(CSc2ccc(Cl)cc2)cnc2nc(N)nc(N)c12	3.6
Cc1ccc(NCc2cnc3nc(N)nc(N)c3c2C)cc1Cl	0.9
COc1cc(NCc2cnc3nc(N)nc(N)c3c2C)cc(C(F)(F)F)c1	0.93
Cc1c(CSc2cccc(Cl)c2)cnc2nc(N)nc(N)c12	3.9
COc1cc(NCc2cnc3nc(N)nc(N)c3c2C)cc(OC)c1OC	0.82
COCc1c(CNc2cc(OC)c(OC)c(OC)c2)cnc2nc(N)nc(N)c12	550
Cc1c(CNc2cc(Cl)ccc2Cl)cnc2nc(N)nc(N)c12	0.89
Cc1cc(C)c(NCc2cnc3nc(N)nc(N)c3c2C)c(Cl)c1	3.8
Cc1c(CNc2cc(Br)ccc2Br)cnc2nc(N)nc(N)c12	0.7
Cc1c(CNc2cccc3cnccc23)cnc2nc(N)nc(N)c12	0.87
Cc1c(CNc2ccc3ccccc3c2)cnc2nc(N)nc(N)c12	0.76
COc1cc(NCc2cnc3nc(N)nc(N)c3c2)cc(OC)c1OC	240
Cc1c(CNc2ccc3c4c(cccc24)-c2ccccc2-3)cnc2nc(N)nc(N)c12	1
Cc1c(CNc2cc(C(F)(F)F)ccc2F)cnc2nc(N)nc(N)c12	0.86

Target: T2, Dihydrofolate reductase (Homo sapiens, UniProt P00374)
T2 sequence (P00374 whole entry): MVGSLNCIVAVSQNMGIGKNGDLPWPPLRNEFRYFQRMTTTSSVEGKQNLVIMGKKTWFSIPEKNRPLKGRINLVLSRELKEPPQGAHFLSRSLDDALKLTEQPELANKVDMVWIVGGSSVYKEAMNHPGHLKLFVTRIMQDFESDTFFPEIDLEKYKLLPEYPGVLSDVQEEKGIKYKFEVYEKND
Test: Antimycobacterial activity against human dihydrofolate reductase (hDHFR)

SMILES	IC50 [nM]
COCc1c(CNc2ccc(Cl)cc2)cnc2nc(N)nc(N)c12	2600
CCc1c(CNc2cc(C(F)(F)F)ccc2OC)cnc2nc(N)nc(N)c12	3.6
COc1cc(OC)cc(N(C)Cc2cnc3nc(N)nc(N)c3c2C)c1	8.7
Cc1cc(Br)cc(C)c1NCc1cnc2nc(N)nc(N)c2c1C	1900
COc1cc(Cl)c(C)cc1NCc1cnc2nc(N)nc(N)c2c1C	10
Cc1c(CNc2cccc3c2CCCC3)cnc2nc(N)nc(N)c12	142
COCc1c(CNc2ccc(OC)c(OC)c2)cnc2nc(N)nc(N)c12	6100
Cc1c(Cl)cccc1NCc1cnc2nc(N)nc(N)c2c1C	5.2
Cc1c(CNC2CCCc3ccccc32)cnc2nc(N)nc(N)c12 (centres undefined)	3400
Cc1cccc(SCc2cnc3nc(N)nc(N)c3c2C)c1	850
CCOc1ccc(OCC)c(N(C)Cc2cnc3nc(N)nc(N)c3c2C)c1	1000
Nc1nc(N)c2cc(CNc3ccc(Cl)cc3)cnc2n1	670
CCc1c(CNc2cc(C)ccc2OC)cnc2nc(N)nc(N)c12	370
COc1ccc(OC)c(NCc2cnc3nc(N)nc(N)c3c2C)c1	1000
CCOc1ccc(NCc2cnc3nc(N)nc(N)c3c2C)cc1OC	18
COc1ccc(OC)c(CCc2cnc3nc(N)nc(N)c3c2C)c1	2700
Cc1c(CNc2ccc3ncccc3c2)cnc2nc(N)nc(N)c12	7.1
COCc1c(CNc2cc(OC)ccc2OC)cnc2nc(N)nc(N)c12	31000
CCOc1ccc(OCC)c(NCc2cnc3nc(N)nc(N)c3c2C)c1	2300

SMILES	IC50 [nM]
Cc1cc(Cl)ccc1NCc1cnc2nc(N)nc(N)c2c1C	2.8
Cc1c(CNc2cc(F)ccc2F)cnc2nc(N)nc(N)c12	69
COc1ccc(C)c(NCc2cnc3nc(N)nc(N)c3c2C)c1	150
Cc1c(CNc2ccc3ccc4cccc5ccc2c3c45)cnc2nc(N)nc(N)c12	3.8
Cc1cc(NCc2cnc3nc(N)nc(N)c3c2C)c(Cl)cc1F	33
Cc1c(CSc2ccc(Cl)cc2)cnc2nc(N)nc(N)c12	590
Cc1ccc(NCc2cnc3nc(N)nc(N)c3c2C)cc1Cl	6.7
COc1cc(NCc2cnc3nc(N)nc(N)c3c2C)cc(C(F)(F)F)c1	5.5
Cc1c(CSc2cccc(Cl)c2)cnc2nc(N)nc(N)c12	420
COc1cc(NCc2cnc3nc(N)nc(N)c3c2C)cc(OC)c1OC	4.7
COCc1c(CNc2cc(OC)c(OC)c(OC)c2)cnc2nc(N)nc(N)c12	1300
Cc1c(CNc2cc(Cl)ccc2Cl)cnc2nc(N)nc(N)c12	8
Cc1cc(C)c(NCc2cnc3nc(N)nc(N)c3c2C)c(Cl)c1	850
Cc1c(CNc2cc(Br)ccc2Br)cnc2nc(N)nc(N)c12	4.6
Cc1c(CNc2cccc3cnccc23)cnc2nc(N)nc(N)c12	4
Cc1c(CNc2ccc3ccccc3c2)cnc2nc(N)nc(N)c12	10
COc1cc(NCc2cnc3nc(N)nc(N)c3c2)cc(OC)c1OC	3900
Cc1c(CNc2ccc3c4c(cccc24)-c2ccccc2-3)cnc2nc(N)nc(N)c12	6.2
Cc1c(CNc2cc(C(F)(F)F)ccc2F)cnc2nc(N)nc(N)c12	4.1
